Reference: patent publication US20160045505A1, “COMPOUNDS AND COMPOSITIONS FOR THE TREATMENT OF PARASITIC DISEASES” (NOVARTIS AG, priority 2013, published 2016)
Where two headings read alike, the source gives them in different places.

Experiments:
[1] = system: Leishmania donovani axenic amastigote parasites; experiment: Leishmania donovani axenic amastigote proliferation assay (Cell TiterGlo luminescence, 2 day incubation); format: cell-based; conditions: Leishmania donovani, read-out: L. donovani amastigotes EC50
[2] = system: L. donovani HU3 strain in mouse peritoneal macrophages; experiment: Assay for proliferation of Leishmania parasites in infected mouse peritoneal macrophages (SybrGreen staining, high-content imaging, 5 days); format: cell-based, Leishmania donovani; conditions: Leishmania donovani, Peritoneal macrophage, L. donovani in mouse peritoneal macrophages, read-out: L. donovani Macrophage EC50
[3] = system: Trypanosoma brucei Lister 427 strain, bloodstream form; experiment: Assay for proliferation of kinetoplastid parasite Trypanosoma brucei (Cell Titer Glo, 48 hours); format: cell-based; conditions: Trypanosoma brucei, read-out: T. brucei EC50
In short: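 Bloodstream-form T. brucei Lister 427 in HMI-9 medium was exposed to compound (DMSO vehicle) for 48 hours at 37° C, 5% CO2. Parasite growth was read as ATP by CellTiter-Glo luminescence, with EC50 calculated from percent inhibition.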

[4] = system: Trypanosoma cruzi amastigotes (Tulahuen strain expressing Lac-Z) cultured in 3T3 fibroblast cells; experiment: microbe, parasite or virus in culture; format: cell-based; conditions: Trypanosoma cruzi, TULAHUEN, Fibroblast
[5] = T. brucei Lister 427 bloodstream form
[6] = T. cruzi amastigotes in 3T3 fibroblast cells, read-out: T cruzi EC50
[7] = axenic amastigotes, inhibition of proliferation
[8] = T. brucei Lister 427 bloodstream form, inhibition of proliferation
[9] = T. cruzi amastigotes in 3T3 fibroblast cells, inhibition of proliferation, read-out: T cruzi EC50

SMILES | EC50 ([1]; L. donovani axenic amastigotes) | EC50 [2] | EC50 [3, 5] | EC50 [4, 6] | EC50 [1, 7] | EC50 ([2]; inhibition of proliferation) | EC50 [3, 8] | EC50 [4, 9] | EC50 [3] | EC50 ([4]; read-out: T cruzi EC50 (μM))
Cc1cnc(F)c(-c2cnc3nc(-c4cc(NC(=O)c5oc(C)nc5C)ccc4F)cn3c2)c1 [Compound 439] | 108 nM | 754 nM | 121 nM | 0.089 µM |  |  |  |  |  | 
Cc1nc(C(=O)Nc2cnc3nc(-c4cc(NC(=O)c5oc(C)nc5C)ccc4F)cn3c2)no1 [Compound 183] |  |  |  |  | 3630 nM | 11500 nM | 2100 nM | > 20 µM |  | 
Cc1ncc(C(=O)Nc2ccc(F)c(-c3cn4cc(C(F)(F)F)cnc4n3)c2)o1 [Compound 201] |  |  |  |  | 58 nM | 208 nM | 460 nM | 0.126 µM |  | 
Cc1nc(C)c(C(=O)Nc2ccc(F)c(-c3cn4cc(NC(=O)C5CCOC(C(C)C)C5)cnc4n3)c2)o1 (stereo not shown) [Compound 120] |  |  |  |  | 300 nM | 975 nM | 419 nM | 0.767 µM |  | 
O=C(Nc1ccc(F)c(-c2cn3cc(C4=CCOCC4)cnc3n2)c1)N1CCC1 [Compound 322] |  |  |  |  | 43 nM | 157 nM | 20 nM | 0.076 µM |  | 
Cc1nc(C)c(C(=O)Nc2ccc(F)c(-c3cn4cc(-c5ccnn5C)cnc4n3)c2)o1 [Compound 393] | 147 nM | 183 nM | 110 nM | 0.149 µM |  |  |  |  |  | 
O=C(Nc1ccc(F)c(-c2cn3cc(F)cnc3n2)c1)N1CCC1 [Compound 232] |  |  |  |  | 381 nM | 1650 nM | 203 nM | 0.384 µM |  | 
Cc1nc(C)c(C(=O)Nc2ccc(F)c(-c3cn4cc(NC(=O)C5CCOCC5)cnc4n3)c2)o1 [Compound 158] |  |  |  |  | 1920 nM | > 50000 nM | 4100 nM | > 20 µM |  | 
CC(C)OC(=O)Nc1cnc2nc(-c3cc(NC(=O)c4ccc(Br)s4)ccc3F)cn2c1 [Compound 82] |  |  |  |  | 4990 nM | 3900 nM | 4200 nM | 1.21 µM |  | 
CC(C)OC(=O)Nc1cnc2nc(-c3cc(NC4=NCC(C)O4)ccc3F)cn2c1 (stereo not shown) [Compound 501] | > 25000 nM | > 50000 nM | 3140 nM | 10.5 µM |  |  |  |  |  | 
Cc1ccc(C(=O)Nc2ccc(F)c(-c3cn4cc(NC(=O)OC(C)C)cnc4n3)c2)s1 [Compound 88] |  |  |  |  | 5370 nM | 19700 nM |  | 1.17 µM | 1180 nM | 
CC(C)OC(=O)Nc1ccc(F)c(-c2cn3cc(-c4ccccn4)cnc3n2)c1 [Compound 314] |  |  |  |  | 46 nM | 95 nM | 51 nM | 0.015 µM |  | 
Cc1ccc(-c2cnc3nc(-c4cc(NC(=O)c5oc(C)nc5C)ccc4F)cn3c2)cn1 [Compound 441] | 97 nM | 912 nM | 309 nM | 0.141 µM |  |  |  |  |  | 
Cc1nc(C)c(C(=O)Nc2ccc(F)c(-c3cn4cc(NC(=O)c5ccc(CN(C)C)cn5)cnc4n3)c2)o1 [Compound 195] |  |  |  |  | 5640 nM | 5330 nM | 463 nM | 2.04 µM |  | 
CC(C)Nc1cnc2nc(-c3cc(NC(=O)N4CC[C@@H](F)C4)ccc3F)cn2c1 [Compound 461] | 234 nM | 185 nM | 55 nM | 0.232 µM |  |  |  |  |  | 
Cc1nc(C)c(C(=O)Nc2ccc(F)c(-c3cn4cc(N5C[C@@H](C)O[C@@H](C)C5)cnc4n3)c2)o1 [Compound 491] | 234 nM | 743 nM | 140 nM | 0.296 µM |  |  |  |  |  | 
CC(C)OC(=O)Nc1cnc2nc(-c3cc(NCC(=O)N4CCCC4)ccc3F)cn2c1 [Compound 560] | 9840 nM | 29700 nM | 5650 nM |  |  |  |  |  |  | 12.1 µM

SMILES | EC50 ([1]; L. donovani axenic amastigotes) | EC50 [2] | EC50 [3, 5] | EC50 [4, 6] | EC50 [1, 7] | EC50 ([2]; inhibition of proliferation) | EC50 [3, 8] | EC50 [4, 9] | EC50 [3] | EC50 ([4]; read-out: T cruzi EC50 (μM))
O=C(Nc1cnc2nc(-c3cc(NC(=O)N4CCCC4)ccc3F)cn2c1)C1CCCN1 (stereo not shown) [Compound 121] |  |  |  |  | 23100 nM | > 50000 nM | 3950 nM | > 20 µM |  | 
CCN(C)C(=O)Nc1ccc(F)c(-c2cn3cc(-c4ccccc4)cnc3n2)c1 [Compound 327] |  |  |  |  | 167 nM | 459 nM | 102 nM | 0.05 µM |  | 
CCC(O)(C(=O)Nc1cnc2nc(-c3cc(NC(=O)N4CCCC4)ccc3F)cn2c1)C(F)(F)F (stereo not shown) [Compound 128] |  |  |  |  | 1750 nM | > 50000 nM | 171 nM | > 20 µM |  | 
Cc1nc(C)c(C(=O)Nc2ccc(F)c(-c3cn4cc(C5CCCC5)cnc4n3)c2)o1 [Compound 422] | 126 nM | 305 nM | 33 nM | 0.193 µM |  |  |  |  |  | 
COc1cccc(-c2cnc3nc(-c4cc(NC(=O)c5oc(C)nc5C)ccc4F)cn3c2)n1 [Compound 458] | 75 nM | 513 nM | 120 nM | 0.043 µM |  |  |  |  |  | 
Cc1nnc(C(=O)Nc2cccc(-c3cn4cc(NC(=O)OC(C)C)cnc4n3)c2)o1 [Compound 526, isopropyl (2-(3-(5-methyl-1,3,4-oxadiazole-2-carboxamido)phenyl)imidazo[1,2-a]pyrimidin-6-yl)carbamate] | > 25000 nM | > 50000 nM | > 50000 nM | > 20 µM |  |  |  |  |  | 
CC(C)c1cnc2nc(-c3cc(NC(=O)N4CC(F)C4)ccc3F)cn2c1 [Compound 415] | 28 nM | 114 nM | 12 nM | 0.044 µM |  |  |  |  |  | 
O=C(Nc1ccc(F)c(-c2cn3cc(F)cnc3n2)c1)N1CC[C@@H](F)C1 [Compound 234] |  |  |  |  | 219 nM | 741 nM | 151 nM | 0.155 µM |  | 
CC(C)OC(=O)Nc1cnc2nc(-c3cc(NC(=O)N4CC[C@H](F)C4)ccc3F)cn2c1 [Compound 227] |  |  |  |  | 3740 nM | > 50000 nM | 4370 nM | 4.91 µM |  | 
CC(C)OC(=O)Nc1cnc2nc(-c3cc(NC(=O)N4CCC[C@@H]4C(F)(F)F)ccc3Cl)cn2c1 [Compound 260] |  |  |  |  | > 25000 nM | 3830 nM | > 50000 nM | 4.55 µM |  | 
CN(C)C(=O)Nc1ccc(F)c(-c2cn3cc(Cl)cnc3n2)c1 [Compound 225] |  |  |  |  | 1610 nM | 8250 nM | 468 nM | 1.2 µM |  | 
CC(C)OC(=O)Nc1cnc2nc(-c3cc(NC(=O)N4CC(F)(F)C(F)(F)C4)ccc3Cl)cn2c1 [Compound 266] |  |  |  |  | 1260 nM | 3370 nM | 1450 nM | 1.16 µM |  | 
Cc1nc(C)c(C(=O)Nc2ccc(F)c(-c3cn4cc(-c5ccc(NC(C)C)cc5)cnc4n3)c2)o1 [Compound 380] | 24500 nM | 33900 nM | 30700 nM | 14.1 µM |  |  |  |  |  | 
CC(C)OC(=O)Nc1cnc2nc(-c3cc(NC(=O)N4CC[C@H](F)C4)ccc3Cl)cn2c1 [Compound 264] |  |  |  |  | 4750 nM | > 14000 nM | 4310 nM | 4.72 µM |  | 
Cc1nc(C)c(C(=O)Nc2ccc(F)c(-c3cn4cc(NC(=O)OCCCCl)cnc4n3)c2)o1 [Compound 519] | 244 nM | 1620 nM | 366 nM | 3.26 µM |  |  |  |  |  | 
Cc1nc(C)c(C(=O)Nc2ccc(F)c(-c3cn4cc(NC5=NCC(C)O5)cnc4n3)c2)o1 (stereo not shown) [Compound 504] | 2970 nM | 5510 nM | 976 nM | 10.7 µM |  |  |  |  |  | 
CC(C)OC(=O)Nc1cnc2nc(-c3cc(NC(=O)/C=C/CN(C)C)ccc3F)cn2c1 [Compound 103] |  |  |  |  | 2150 nM | 9860 nM | 5620 nM | 10.8 µM |  | 
